Reference: patent publication US11491120B2, “Pharmacological prophylactics against stress-induced affective disorders in females” (The Trustees of Columbia University in the City of New York, priority 2017, dated 2022)
Entries after “also recorded” stand apart in the source; their conditions may differ.

Assays:
female 129S6/SvEv mice [1] = assay: Elevated plus maze (EPM); type: in vivo, mouse; details: 10 mg/kg, 1 week prophylactic drug, learned helplessness stress
Description: The EPM was administered as previously described (58), with the exception that videos were scored using ANY-maze behavioral tracking software (Stoelting Co., Wood Dale, Ill.).
We have previously shown that prophylactic (R,S)-ketamine attenuates helpless behavior in male mice (18). To validate these findings in females, female mice were administered saline, (R,S)-ketamine, or (2R,6R)-HNK one week prior to LH training (FIG. 4A). Two weeks later, mice were tested for escape latency and for depressive- and anxiety-like behaviors in the FST and elevated plus maze (EPM). CFC was again administered following these behavioral assays.

humans = details: sub-anesthetic doses, cited from earlier work
male mice = details: as previously shown; cited from earlier work
female 129S6/SvEv mice [2] = assay: Forced swim test (FST), immobility time, after stress; details: for p, Sal vs. drug, Fisher's PLSD: Immobility Time (min 1-6), Forced Swim Test Day 2 / p, Sal vs. drug, Fisher's PLSD: Immobility Time Average (min 3-6), Forced Swim Test Day 2: 3 day prophylactic drug
[3] = 2.5 mg/kg, 1 week prophylactic drug
[4] = 10 mg/kg, 1 week prophylactic drug
[5] = 10 mg/kg, 1 week prophylactic drug, learned helplessness stress
[6] = 30 mg/kg, 1 week prophylactic drug
[7] = Forced Swim Test Day 1, Dunnett test Sal vs. drug (2.5), 1 week prophylactic drug
[8] = Forced Swim Test Day 1, Dunnett test Sal vs. drug (10), 1 week prophylactic drug
[9] = Forced Swim Test Day 1, Dunnett test Sal vs. drug (30), 1 week prophylactic drug

Compound: CNC1(c2ccccc2Cl)CCCCC1=O (racemic) [(R,S)-ketamine, (RS)-2-(2-chlorophenyl)-2-(methylamino)cyclohexanone]
- * (significance), Sal vs. drug, Fisher's PLSD: Time in Closed Arms Average (min 1-6), Elevated Plus Maze (female 129S6/SvEv mice [1]): * (* p<0.05)
- * (significance), Sal vs. drug, Fisher's PLSD: Time in Open Arms Average (min 1-6), Elevated Plus Maze (female 129S6/SvEv mice [1]): * (* p<0.05)
- P, Sal vs. drug, Fisher's PLSD: Time in Closed Arms Average (min 1-6), Elevated Plus Maze (female 129S6/SvEv mice [1]): 0.0186
- P, Sal vs. drug, Fisher's PLSD: Time in Open Arms Average (min 1-6), Elevated Plus Maze (female 129S6/SvEv mice [1]): 0.0147
- Antidepressant onset (humans; humans): 2 h
- Duration of antidepressant effect (humans): up to 2 weeks
- Prophylactically effective dose in males (male mice): 30 mg/kg
- p, Sal vs. drug, Dunnett test: Immobility Time (min 1), Forced Swim Test Day 2 (female 129S6/SvEv mice [2]; [3]): 0.5849
- p, Sal vs. drug, Dunnett test: Immobility Time (min 1-6), Forced Swim Test Day 2 (female 129S6/SvEv mice [2]; [3]): 0.8314
- p, Sal vs. drug, Dunnett test: Immobility Time (min 2), Forced Swim Test Day 2 (female 129S6/SvEv mice [2]; [3]): 0.9770
- p, Sal vs. drug, Dunnett test: Immobility Time (min 4), Forced Swim Test Day 2 (female 129S6/SvEv mice [2]; [3]): 0.9997
- p, Sal vs. drug, Dunnett test: Immobility Time (min 5), Forced Swim Test Day 2 (female 129S6/SvEv mice [2]; [3]): 0.9999
- p, Sal vs. drug, Dunnett test: Immobility Time (min 6), Forced Swim Test Day 2 (female 129S6/SvEv mice [2]; [3]): 0.9686
- p, Sal vs. drug, Dunnett test: Immobility Time Average (min 3-6), Forced Swim Test Day 2 (female 129S6/SvEv mice [2]; [3]): 0.9990
- p, Sal vs. drug, Fisher's PLSD: Immobility Time (min 1-6), Forced Swim Test Day 2 (female 129S6/SvEv mice [2]; 2.5 mg/kg): 0.1441
- p, Sal vs. drug, Fisher's PLSD: Immobility Time Average (min 3-6), Forced Swim Test Day 2 (female 129S6/SvEv mice [2]; 2.5 mg/kg): 0.3992
- * (significance), Sal vs. drug, Dunnett test: Immobility Time (min 1-6), Forced Swim Test Day 2 (female 129S6/SvEv mice [2]; [4]): ** (** p<0.01)
- * (significance), Sal vs. drug, Dunnett test: Immobility Time (min 4), Forced Swim Test Day 2 (female 129S6/SvEv mice [2]; [4]): * (* p<0.05)
- * (significance), Sal vs. drug, Dunnett test: Immobility Time (min 5), Forced Swim Test Day 2 (female 129S6/SvEv mice [2]; [4]): * (* p<0.05)
- * (significance), Sal vs. drug, Dunnett test: Immobility Time Average (min 3-6), Forced Swim Test Day 2 (female 129S6/SvEv mice [2]; [4]): ** (** p<0.01)
- p, Sal vs. drug, Dunnett test: Immobility Time (min 1), Forced Swim Test Day 2 (female 129S6/SvEv mice [2]; [4]): 0.0825
- p, Sal vs. drug, Dunnett test: Immobility Time (min 1-6), Forced Swim Test Day 2 (female 129S6/SvEv mice [2]; [4]): 0.0006
- p, Sal vs. drug, Dunnett test: Immobility Time (min 2), Forced Swim Test Day 2 (female 129S6/SvEv mice [2]; [4]): 0.0675
- p, Sal vs. drug, Dunnett test: Immobility Time (min 4), Forced Swim Test Day 2 (female 129S6/SvEv mice [2]; [4]): 0.0144
- p, Sal vs. drug, Dunnett test: Immobility Time (min 5), Forced Swim Test Day 2 (female 129S6/SvEv mice [2]; [4]): 0.0149
- p, Sal vs. drug, Dunnett test: Immobility Time (min 6), Forced Swim Test Day 2 (female 129S6/SvEv mice [2]; [4]): 0.3306
- p, Sal vs. drug, Dunnett test: Immobility Time Average (min 3-6), Forced Swim Test Day 2 (female 129S6/SvEv mice [2]; [4]): 0.0062
- * (significance), Sal vs. drug, Fisher's PLSD: Immobility Time Average (min 3-6), Forced Swim Test Day 2 (female 129S6/SvEv mice [2]; [5]): *** (*** p<0.0001)
- P, Sal vs. drug, Fisher's PLSD: Immobility Time Average (min 3-6), Forced Swim Test Day 2 (female 129S6/SvEv mice [2]; [5]): <0.0001
- p, Sal vs. drug, Fisher's PLSD: Immobility Time (min 1-6), Forced Swim Test Day 2 (female 129S6/SvEv mice [2]; 10 mg/kg): 0.1807
- p, Sal vs. drug, Fisher's PLSD: Immobility Time Average (min 3-6), Forced Swim Test Day 2 (female 129S6/SvEv mice [2]; 10 mg/kg): 0.4394
- Immobility on FST Day 2, first minute, vs saline (female 129S6/SvEv mice [2]; 10 mg/kg, injection one hour prior to FST Day 1, female mice): significantly less immobile compared to saline mice; also recorded: significantly less immobile than saline mice during the first minute
- p, Sal vs. drug, Dunnett test: Immobility Time (min 1), Forced Swim Test Day 2 (female 129S6/SvEv mice [2]; [6]): 0.9167
- p, Sal vs. drug, Dunnett test: Immobility Time (min 1-6), Forced Swim Test Day 2 (female 129S6/SvEv mice [2]; [6]): 0.1741
- p, Sal vs. drug, Dunnett test: Immobility Time (min 2), Forced Swim Test Day 2 (female 129S6/SvEv mice [2]; [6]): 0.7390
- p, Sal vs. drug, Dunnett test: Immobility Time (min 4), Forced Swim Test Day 2 (female 129S6/SvEv mice [2]; [6]): 0.4082
- p, Sal vs. drug, Dunnett test: Immobility Time (min 5), Forced Swim Test Day 2 (female 129S6/SvEv mice [2]; [6]): 0.3770
- p, Sal vs. drug, Dunnett test: Immobility Time (min 6), Forced Swim Test Day 2 (female 129S6/SvEv mice [2]; [6]): 0.8643
- p, Sal vs. drug, Dunnett test: Immobility Time Average (min 3-6), Forced Swim Test Day 2 (female 129S6/SvEv mice [2]; [6]): 0.5537
- p, Sal vs. drug, Fisher's PLSD: Immobility Time (min 1-6), Forced Swim Test Day 2 (female 129S6/SvEv mice [2]; 30 mg/kg): 0.0750
- p, Sal vs. drug, Fisher's PLSD: Immobility Time Average (min 3-6), Forced Swim Test Day 2 (female 129S6/SvEv mice [2]; 30 mg/kg): 0.3050
- p, Immobility Time (min 1) (female 129S6/SvEv mice [2]; [7]): 0.9806
- p, Immobility Time (min 1-6) (female 129S6/SvEv mice [2]; [7]): 0.1415
- p, Immobility Time (min 3) (female 129S6/SvEv mice [2]; [7]): 0.9989
- p, Immobility Time (min 4) (female 129S6/SvEv mice [2]; [7]): 0.9991
- p, Immobility Time (min 5) (female 129S6/SvEv mice [2]; [7]): 0.9999
- p, Immobility Time (min 6) (female 129S6/SvEv mice [2]; [7]): 0.9999
- p, Immobility Time Average (min 3-6) (female 129S6/SvEv mice [2]; [7]): 0.9994
- * (significance), Immobility Time (min 3) (female 129S6/SvEv mice [2]; [8]): * (* p<0.05)
- p, Immobility Time (min 1) (female 129S6/SvEv mice [2]; [8]): 0.9957
- p, Immobility Time (min 1-6) (female 129S6/SvEv mice [2]; [8]): 0.2256
- p, Immobility Time (min 3) (female 129S6/SvEv mice [2]; [8]): 0.0470
- p, Immobility Time (min 4) (female 129S6/SvEv mice [2]; [8]): 0.3636
- p, Immobility Time (min 5) (female 129S6/SvEv mice [2]; [8]): 0.2596
- p, Immobility Time (min 6) (female 129S6/SvEv mice [2]; [8]): 0.1488
- p, Immobility Time Average (min 3-6) (female 129S6/SvEv mice [2]; [8]): 0.0733
- p, Immobility Time (min 1) (female 129S6/SvEv mice [2]; [9]): 0.9955
- p, Immobility Time (min 1-6) (female 129S6/SvEv mice [2]; [9]): 0.3435
- p, Immobility Time (min 3) (female 129S6/SvEv mice [2]; [9]): 0.1617
- p, Immobility Time (min 4) (female 129S6/SvEv mice [2]; [9]): 0.9555
- p, Immobility Time (min 5) (female 129S6/SvEv mice [2]; [9]): 0.8239
- p, Immobility Time (min 6) (female 129S6/SvEv mice [2]; [9]): 0.8254
